Assays:
Assay type in all cases: in vivo
[1] = test system: Plutella xylostella (Diamond Back Moth); experiment: Plutella xylostella (diamond back moth) artificial diet test; conditions: 120 h, application rate of 200 ppm, L2 larvae, artificial diet treated by pipetting, 5 days after infestation, in comparison to untreated samples, read-out: effect in at least one of the two categories (mortality or growth inhibition)
Protocol: Example B7: Plutella xylostella (Diamond Back Moth)
24-well microtiter plates with artificial diet were treated with aqueous test solutions prepared from 10′000 ppm DMSO stock solutions by pipetting. After drying, the plates were infested with L2 larvae (10 to 15 per well). The samples were assessed for mortality and growth inhibition in comparison to untreated samples 5 days after infestation.
(§1) The following compounds gave an effect of at least 80% in at least one of the two categories (mortality or growth inhibition) at an application rate of 200 ppm: P1, P2, P3, P4.

[2] = test system: Spodoptera littoralis (Egyptian Cotton Leaf Worm); experiment: Spodoptera littoralis (Egyptian cotton leaf worm) test on sprayed cotton leaf discs; conditions: foliar, 72 h, application rate of 200 ppm, L1 larvae, 3 days after infestation, in comparison to untreated samples, read-out: control (mortality, anti-feeding effect, or growth inhibition)
Protocol: Example B8: Spodoptera littoralis (Egyptian Cotton Leaf Worm)
Cotton leaf discs were placed onto agar in 24-well microtiter plates and sprayed with aqueous test solutions prepared from 10′000 ppm DMSO stock solutions. After drying the leaf discs were infested with five L1 larvae. The samples were assessed for mortality, anti-feeding effect, and growth inhibition in comparison to untreated samples 3 days after infestation. Control of Spodoptera littoralis by a test sample is given when at least one of the categories mortality, anti-feedant effect, and growth inhibition is higher than the untreated sample.

[3] = test system: Diabrotica balteata (Corn Root Worm); experiment: Diabrotica balteata (corn root worm) test on sprayed maize sprouts; conditions: 96 h, application rate of 200 ppm, L2 larvae, 4 days after infestation, in comparison to untreated samples, read-out: effect in at least one of the two categories (mortality or growth inhibition)
Protocol: Example B2: Diabrotica balteata (Corn Root Worm)
Maize sprouts placed onto an agar layer in 24-well microtiter plates were treated with aqueous test solutions prepared from 10′000 ppm DMSO stock solutions by spraying. After drying, the plates were infested with L2 larvae (6 to 10 per well). The samples were assessed for mortality and growth inhibition in comparison to untreated samples 4 days after infestation.
as §1

CCS(=O)(=O)c1cc(-c2cccc(F)c2)cnc1-n1cc2ncc(C(F)(F)F)cc2n1 [P2]
≥ 80%: percent effect (mortality or growth inhibition) at 200 ppm [1] | percent control (mortality, anti-feedant effect or growth inhibition) at 200 ppm [2] | percent effect (mortality or growth inhibition) at 200 ppm [3]

CCS(=O)(=O)c1cc(-c2cc(F)cc(F)c2)cnc1-n1cc2ccc(C(F)(F)F)cc2n1 [P3, 2-[5-(3,5-difluorophenyl)-3-ethylsulfonyl-2-pyridyl]-6-(trifluoromethyl)indazole]
≥ 80%: percent effect (mortality or growth inhibition) at 200 ppm [1] | percent control (mortality, anti-feedant effect or growth inhibition) at 200 ppm [2] | percent effect (mortality or growth inhibition) at 200 ppm [3]

CCS(=O)(=O)c1cc(-c2cccc(F)c2)cnc1-n1cc2ccc(C(F)(F)F)cc2n1 [P4]
≥ 80%: percent effect (mortality or growth inhibition) at 200 ppm [1] | percent control (mortality, anti-feedant effect or growth inhibition) at 200 ppm [2] | percent effect (mortality or growth inhibition) at 200 ppm [3]

CCS(=O)(=O)c1cc(-c2cc(F)cc(F)c2)cnc1-n1cc2ncc(C(F)(F)F)cc2n1 [P1, 2-[5-(3,5-difluorophenyl)-3-ethylsulfonyl-2-pyridyl]-6-(trifluoromethyl)pyrazolo[4,3-b]pyridine]
≥ 80%: percent effect (mortality or growth inhibition) at 200 ppm [1] | percent control (mortality, anti-feedant effect or growth inhibition) at 200 ppm [2] | percent effect (mortality or growth inhibition) at 200 ppm [3]

From US10667518B2, “Pesticidally active heterocyclic derivatives with sulphur containing substituents” (SYNGENTA PARTICIPATIONS AG, priority 2016, dated 2020)
